Experimental findings from ChEMBL document CHEMBL1154174, “Phytochemical investigation of labdane diterpenes from the rhizomes of Hedychium spicatum and their cytotoxic activity” (Bioorg Med Chem Lett, 2009) are described below.

Broadly, the IC50 is the concentration that gives 50% inhibition.

Type in all cases: functional, cell-based
One experiment concerns HL-60. The experiment can be described thus: Cytotoxicity against human HL60 cells by MTT assay. For orientation: Tetrazolium assays rely on reduction of a dye to a coloured formazan, in cell work by metabolically active cells.
Another experiment deals with THP-1. As to the kind of experiment: Cytotoxicity against human THP1 cells by MTT assay.
The test system of another experiment is A-375. The experiment can be described thus: Cytotoxicity against human A375 cells by MTT assay.
A further experiment deals with A549. As to the kind of experiment: Cytotoxicity against human A549 cells by MTT assay.
[1] abbreviates: Homo sapiens, HL-60, read-out: IC50.

For `C=C1CC[C@H]2C(C)(C)CCC[C@]2(C)[C@H]1C`, the IC50 entry in the experiment on HL-60 (hl-60) was “Not Active”; with THP-1, 53.9 µM; in the experiment with A-375 it was 50.2 µM; in the experiment with A549, 61.3 µM.

Regarding `CC1(C)CCC[C@]2(C)[C@@H](/C=C/c3ccoc3)C(C=O)=C(O)C(=O)[C@@H]12`, the half-inhibitory concentration (IC50) in the experiment with HL-60 (setting [1]) amounted to 16 µM; with THP-1 it was 23.4 µM; with A-375, 21.6 µM; in the experiment on A549, 37.9 µM.

For the compound `CCOC(=O)/C=C/c1ccc(OC)cc1` [4-METHOXY ETHYL CINNAMATE], the 50% inhibitory concentration (IC50) with HL-60 (setting [1]) is 29.6 µM; with THP-1, 33.5 µM; with A-375 it was 31.3 µM.

With `O=c1cc(-c2ccccc2)oc2cc(O)cc(O)c12` [CHRYSIN], the IC50 amounted to 34 µM with HL-60 (setting [1]), 23.4 µM in the experiment with THP-1, 29.7 µM in the experiment on A-375 and 19.9 µM with A549.

In the case of `C=C1CC[C@H]2C(C)(C)CCC[C@]2(C)[C@H]1/C=C/c1ccoc1` [CORONARIN E], the IC50 in the experiment with HL-60 (setting [1]) was 31.2 µM; in the experiment with THP-1, 34 µM; in the experiment with A-375 it was 36.6 µM; with A549 it was 53.3 µM.

`CCOC(=O)/C=C/c1ccccc1` [ETHYL CINNAMATE]: the IC50 came to 35.7 µM in the experiment with HL-60 (setting [1]), 41.2 µM in the experiment on THP-1, 31.6 µM with A-375 and 50.4 µM with A549.

Consider `COc1cc([C@@H]2c3cc4c(cc3[C@@H](O[C@@H]3O[C@@H]5CO[C@@H](C)O[C@H]5[C@H](O)[C@H]3O)[C@H]3COC(=O)[C@H]23)OCO4)cc(OC)c1O` [ETOPOSIDE], for which the values for the 50% inhibitory concentration (IC50) in the experiment with HL-60 (setting [1]) and with THP-1 were 2.16 µM and 1.83 µM, respectively.

Turning to `CC1=CC(=O)[C@H]2C(C)(C)CCC[C@]2(C)[C@H]1/C=C/C(=O)O` [SPICATANOIC ACID], the IC50 in the experiment on HL-60 (setting [1]) was determined as 69.4 µM; in the experiment on THP-1, 39 µM; in the experiment on A-375 it was 56.1 µM; in the experiment with A549 it was 52 µM.

Take `CC1(C)CCC[C@]2(C)[C@@H](/C=C/c3ccoc3)C(CO)=CC(=O)[C@@H]12` [YUNNACORONARIN D]: the IC50 in the experiment with HL-60 (setting [1]) came out at 36.4 µM; in the experiment on THP-1, 59.5 µM; in the experiment on A-375, 41.9 µM; in the experiment on A549, 51.2 µM.
